What was measured:
anti-STp mAb clone 30 = test: Competitive ELISA with anti-STp antibodies (polyclonal, mAbs clone 29, 30, 31); format: binding; settings: anti-STp mAb Clone 30, competitive ELISA
Protocol: (§1) The anti-STh mAb ST:G8 was kindly supplied by S. Visweswariah [Garrett & Visweswariah; PMID: 8950201]. The anti-STp mAbs clone 29, clone 30, and clone 31 were obtained from Fitzgerald Industries International.
ELISA-plates (Nunc Amino Immobilizer) were coated with STh-OvA conjugate in PBS, volume 100 μl per well (synthetic STh conjugated to OvA: For ST:G8 0.04 μl/well, for clone 29 and clone 30 0.01 μl/well). Plates were incubated overnight at 4 C. Subsequently, plates were emptied and blocked with PBS-T 1% OvA for 1h at 20° C. with shaking 180 rpm. After washing (3× with PBS-T) a volume of 60 μl of sample and 60 μl of primary antibody dilution was added to wells. Final dilutions of mAbs were as follows: ST:G8 1:6500, clone 29 1:16000, clone 30 1: 30000. Competitive incubation was performed for 90 minutes at 180 rpm, 20 C. Plates were then washed with 3×200 μl PBS-T and incubated at room-temperature for 1h with secondary antibody diluted in PBS-T 100 μl per well (anti-mouse dilution 1:400 for the ST:G8 ELISA, anti-mouse dilution 1:2000 for clone 29 and clone 30 ELISA). After renewed washing with 3×200 μl PBS-T, plates were developed with 100 μl developing buffer for 15-20 minutes. Developing was stopped by adding 50 μl NaOH 2M to each well, and OD was read at 405 nm with a Fluostar Optima plate reader.
For the clone 31 mAb a slightly different protocol was developed. […]

anti-STh mAb ST:G8 = test: Competitive ELISA with anti-STh antibodies (polyclonal, mAb ST:G8); format: binding; settings: polyclonal and monoclonal (ST:G8) anti-STh antibodies
Protocol: Competitive STh ELISA was performed as previously described (PMID: 6520401; Lockwood and Robertson, J Immunol Methods. 1984 Dec. 31; 75(2):295-307) with minor modifications. A U-shaped microtiter plate (Linbro, Fisher Scientific, Göteborg, Sweden) was coated with STh-ovalbumin conjugate diluted in ELISA buffer (NaCl 128 mM, KCl 2.68 mM, KH2PO4 1.47 mM, Na2HPO4 8.10 mM; pH 7.0-7.2). The plate was covered with plate sealer and incubated overnight at 37° C. Contents of the wells were discarded by inversion. Additional protein binding sites were blocked by incubating with ovalbumin 1% (w/v) (Sigma-Aldrich) diluted in ELISA buffer. After incubation for 1 h at 37° C., wells were emptied and washed three times with wash buffer (ELISA buffer containing ovalbumin 0.05% (w/v) and Tween-20 0.05% (v/v)). 75 μL of samples containing STh and 75 μL of diluted antisera (Protein-A purified rabbit anti-STa kindly supplied by John D. Clements; Department of Microbiology and Immunology, Tulane University, New Orleans, USA) were added. Both dilutions were done in ELISA buffer containing ovalbumin 0.05% (w/v). Appropriate dilutions and concentrations of reagents were determined by checkerboard titrations. The plate was incubated for 2 h at 37° C., in a rotary incubator shaker (Infors HT, Bottmingen/Basel Switzerland) at 180 rpm. Wells were emptied and washed three times with wash buffer. 100 μL of anti-Rabbit IgG Alkaline Phosphatase Conjugate developed in goat (Sigma-Aldrich) diluted 1:400 in ELISA buffer with ovalbumin 0.05% (w/v) were add and incubated with not shaking for 1 h at 37° C. Wells were emptied and washed three times with wash buffer followed by addition of 100 μL of 4-Nitrophenyl phosphate disodium salt hexahydrate at 1 mg/mL in diethanolamine buffer (diethanolamine 9.7% (v/v), MgCl2×6H2O 0.49 mM; pH 9.8). After incubation for 30 min, the reaction was stopped with 50 μL 2N NaOH (VWR international) in each well. The absorbance was read in an automatic plate reader at 405 nm (FLUOstar OPTIMA; BMG Labtech, Germany). All samples were measured in triplicate.
as §1
ELISA-plates (Nunc Amino Immobilizer) were coated with STh-OvA conjugate in PBS, volume 100 μl per well (synthetic STh conjugated to OvA: For ST:G8 0.04 μl/well, for clone 29 and clone 30 0.01 μl/well). Plates were incubated overnight at 4 C. Subsequently, plates were emptied and blocked with PBS-T 1% OvA for 1h at 20° C. with shaking 180 rpm. […] Developing was stopped by adding 50 μl NaOH 2M to each well, and OD was read at 405 nm with a Fluostar Optima plate reader.

With “uroguanylin (NDDCELCVNVACTGCL) [endogenous peptide ligand of the GC-C receptor]” the “binding by anti-STp antibodies” value (anti-STp mAb clone 30) was “does not cross-react” and the “binding by anti-STh antibodies” value (anti-STh mAb ST:G8) was “bound”.

From patent US10166279B2, “Vaccine” (Bergen Teknologioverføring AS, priority 2013, dated 2019)
